≈ marks a conversion by molar mass, not a printed value.
Legend:
[1] = system: gestating ICR mice; experiment: in vivo teratology study, single oral dose on day 11 of gestation; set-up: species or system mouse; conditions: female, ICR, mouse, in vivo, 17 day of gestation; for # Litters Normal / Teratogenic Effects % Cleft Palate / Teratogenic Effects % Limb Defects / Teratogenic Effects % Resorbed: po
Method: The methodology of the study is described as follows:
ICR mice (Ace Animals, Boyertown, Pa.) were used. Mature male and virgin female ICR mice were housed in environmentally controlled rooms and acclimatized to a 12 hour light/dark cycle (light cycle 6 A.M. to 6 P.M.) for 2 weeks prior to use. All animals were maintained on Purina Lab Chow and tap water ad libitum. A group of 3-4 females was caged with a single male of proven fertility for 4 hours. Presence of a vaginal plug immediately afterward was regarded as evidence of successful mating, and this day was designated as day 0 of gestation.
[…] All animals were killed by cervical dislocation under mild ether anesthesia on day 17 of gestation. Upon laparotomy, the fetuses were examined for external malformations and weighed; one-half of each litter was then fixed in 95% ethanol and processed for staining of the skeleton by the rapid, alizarin red-S dye method. These preparations were examined under a dissection microscope to screen for abnormalities in the axial and the appendicular skeleton. The other half of each litter was fixed in Bouin's solution and examined by freehand razor serial sectioning to screen for anomalies of the brain, face, and palate.
Differences in dose-related incidence of malformations and resorptions were assessed by computing percentages of affected conceptuses among total implantation sites. The groups were compared statistically by a method based on Student's t-tests of arcs in square root transformed percentages. Values at 0.05 probability level were considered significant. The median effective dose was calculated by logarithmic curve fitting of the dose-response data.

[2] = system: tissue transglutaminase (tTGASE) in HL-60 cells; experiment: Tissue Transglutaminase Assay (tTGASE) in HL-60 Cells; assay type: cell-based; conditions: FIGS. 6-9
Method: Other assays in which the retinoid like activity of the compounds used in accordance with the invention are confirmed are the HL-60 transglutaminase induction and HL-60 differentiation assay, the procedures of which are described as follows.
HL-60 cells were grown as a suspension culture in T-162 cm^2 flasks in serum-free RPMI 1640 medium supplemented with insulin (5 μg/ml), transferrin (5 μg/ml), and selenium (3 nM). The cells (1×10^6 cells/well, in 6-well dishes) were treated with serial dilutions of test compounds in the above RPMI 1640 medium which was additionally supplemented with […] dibutyryl cyclic adenosine monophosphate, a component found to be necessary for efficient differentiation of the cells. Ethanol was used in the vehicle control cultures. After 1 days of incubation at 37° C. in a 7.5% CO2 incubator, the cells were collected in a set of tubes and pelleted by centrifugation. The cells were lyzed in a buffer containing 20 mM Tris-HCl, pH 7.5, 1 mM EDTA, and 0.5% Triton X-100. An aliquot of the cell lysate was assayed for tTGASE activity in a reaction mixture containing 20 mM Tris-HCl, pH 7.5, 5 mM CaCl2, 2 mg/ml dimethylcasein, 15 mM B-mercaptoethanol and 50 μCi/ml [2,3-^3H] putrescine dihydrochloride. The reaction was carried out for 60 minutes in a 37° C. shaking water bath. The reaction was stopped by an addition of 10% trichloroacetic acid containing 0.1% putrescein. An aliquot of the stopped reaction mixture was spotted on Whatman 3 MM filter discs. The filter discs, along with the control blank filter discs, were washed twice with 5% trichloroacetic acid containing 0.1% putrescein and twice with methanol. After drying under a heat lamp, the radioactivity in the filter discs was determined by scintillation counting. An aliquot of the cell lysates was also assayed for […] by the Bradford method (Bio-Rad). After subtracting the radioactivity from the control blank filter discs, the data were calculated and expressed as pmol/min/mg protein.
As is well understood in the art, induction of tranglutaminase activity in the just-described assay is an early marker of retinoid like activity.

[3] = system: limb bud mesenchymal cells; experiment: inhibition of chondrogenesis in high-density spot cultures of limb bud mesenchymal cells; assay type: cell-based; conditions: Mus musculus; limb bud mesenchymal cell spot cultures, terminated 96 hours after plating; read-out: IC50 (concentration which inhibited chondrogenesis by 50%)
From the text: In an in vitro bioassay which measures inhibition of chondrogenesis (bone formation) in […] as a classic measure of teratogenecity the results shown in Table 2 were obtained. The assay is described as follows:
High-density “spot” cultures of limb bud mesenchymal cells were used to compare the ability of various concentrations of test drugs to suppress chondrogenic differentiation as a bioassay. Forelimb buds of mouse embryos on day 12 of gestation (54±2 somites) were dissociated in a trypsin-EDTA solution, and the resultant single-cell suspension was plated as 20-μl spots (200,000 cells/spot) on plastic culture dishes. Retinoid concentrations ranging from 0.3 ng/ml to 3 μg/ml (1 nM-10 μM) were added to the culture medium (Eagle's MEM+10% fetal bovine serum, GIBCO) 24 hours after initial plating. […]
The cultures were terminated 96 hours after plating, at which time the medium was removed and the cells were fixed for 1 hour in 10% formalin containing 0.5% cetylpyridinium chloride. The cultures were rinsed in acetic acid and stained for 1 hour in 0.5% Alcian blue solution at pH 1.0, differentiated in 3% acetic acid, and then dehydrated in ethanol and scored for chondrogenesis under the microscope. […] The number of cartilage nodules stained in the whole spot, mean number of nodules, and standard deviations were calculated for four replicate cultures per treatment. […]

## C/C(=C\c1ccc(C(=O)O)cc1)c1ccc2c(c1)C(C)(C)CCC2(C)C [AGN 191183, reference compound]
[1]; 0.1 mg/kg
  litters that exhibited teratogenic effects: 100%
  # Litters Normal: 0
  Teratogenic Effects % Cleft Palate: 100%
  Teratogenic Effects % Limb Defects: 100%
  Teratogenic Effects % Resorbed: 30%
[1]; 0.01 mg/kg
  # Litters Normal: 2
  Teratogenic Effects % Cleft Palate: 29%
  Teratogenic Effects % Limb Defects: 20%
  Teratogenic Effects % Resorbed: 3%
[1]; 1 mg/kg
  # Litters Normal: 0
  Teratogenic Effects % Resorbed: 100%
[1]; 10 mg/kg
  # Litters Normal: 0
  Teratogenic Effects % Resorbed: 100%
[2]
  induction of transglutaminase activity: inactive
[3]
  IC50: 3 ng/mL (≈ 8.61 nM)

Reference: patent US6624188B1, “Method of treatment with compounds having retinoid-like activity and reduced skin toxicity and lacking teratogenic effects” (Allergan, Inc., priority 1992, dated 2003)
